Key:
β1 β1 ADH (Class I) [1] = assay: Kinetics of enzymatic reduction of methoxynaphthaldehydes by β1β1 ADH; type: biochemical, human; details: pH 7.0, 50 μM NADH; spectrophotometric
β1 γ1 ADH (Class I) = biological target: T1, β1 γ1 ADH (Class I) (Homo sapiens, UniProt P00325+P00326); assay: Kinetics of enzymatic reduction of methoxynaphthaldehydes by β1γ1 ADH; type: biochemical; details: rate relative to ethanol oxidation at pH 10.0
T1 construct: beta1 (ADH1B*1) and gamma1 (ADH1C*1) alleles

αβ1 ADH (Class I) = biological target: T2, αβ1 ADH (Class I) (Homo sapiens, UniProt P00325+P07327); assay: Kinetics of enzymatic reduction of methoxynaphthaldehydes by αβ1 ADH; type: biochemical; details: rate relative to ethanol oxidation at pH 10.0
T2 construct: beta1 allele (ADH1B*1, Arg47 and Arg369 in mature count)
Method: (§1) Standard assays for ethanol oxidation activity (Dalziel, 1957, Acta Chem Scand 11:1706-23) were carried out on a Cary 219 spectrophotometer interfaced with an Apple IIe microcomputer, using software provided by Varian Associates. The reaction mixture contained 2.5 mM NAD^+ in 0.1M glycine-NaOH buffer. pH 10.0, and 33 mM or 0.2M ethanol for Class I and Class II ADH, respectively.
(§2) Aldehyde reduction was monitored by following the decrease of absorption at 340 nm in 40 mM Mes buffer, pH 7.1. in the presence of saturating NADH, 50 μM for Class I and 100 μM for Class II. […] Initial reaction rates were measured and kinetic parameters determined by conventional procedures as described by Segel, 1975, Enzyme Kinetics, pp. 591-597, Wiley, N.Y. […]
(§3) The linear increase of fluorescence was then recorded for 1-10 minutes, until 0.03-1 μM of substrate was consumed. […] The added product fluorescence intensity was then measured Fluorescence measurements were optimized for samples with low activity (<1 nM/minute). […] Rates measured in the presence of the 0.2 mM ADH inhibitors. […]
(§4) Additionally the reaction rates for these isozymes were compared to those measured by the standard assay for ethanol oxidation (see part 7 above) at pH 10.0 the optimum for oxidation of ethanol by ADH. […]

Horse ADH = assay: Kinetics of enzymatic reduction of methoxynaphthaldehydes by horse ADH; type: biochemical; details: for Km / kcat: pH 7.0, 50 μM NADH, spectrophotometric, >90% EE isozyme; for v/v (EtOH): rate relative to ethanol oxidation at pH 10.0
From the text: Crystalline horse ADH was purchased from Boehringer-Mannheim (Indianapolis,Ind.). NAD^+ and NADH, both grade III, were obtained as preweighed samples from Sigma Chemical Co. (St. Louis, Mo.); isobutyramide was from Aldrich., ethanol (100%) was from U.S. Industrial Chemicals Co. (New York, N.Y.); Mes acid (2-(N-morpholino)ethanesulfonic acid) was recrystallized from water. All other reagents were of analytical grade. Deionized, glass-distilled water was used throughout.
as §1, §2
(§5) Additionally the reaction rates for these isozymes were compared to those measured by the standard assay for ethanol oxidation (see part 7 above) at pH 10.0 the optimum for oxidation of ethanol by ADH. The rate of IA reduction for all Class I isozymes except the β1 β1 form is 1.5- to 4-fold faster than that of ethanol oxidation as measured by the conventional ethanol oxidation assay. […] Table III illustrates that IIA is an excellent substrate for Class II (.eta.) ADH, with a rate of IIA reduction at least 8-fold faster than that of ethanol oxidation.

human ADH isozymes = assay: Kinetics of enzymatic reduction of methoxynaphthaldehydes by ADH isozymes (general); type: biochemical
Method: (§6) Aldehyde reduction was monitored by following the decrease of absorption at 340 nm in 40 mM Mes buffer, pH 7.1. in the presence of saturating NADH, 50 μM for Class I and 100 μM for Class II. […] Initial reaction rates were measured and kinetic parameters determined by conventional procedures as described by Segel, 1975, Enzyme Kinetics, pp. 591-597, Wiley, N.Y.
All reaction mixtures (3 ml total volume) were prepared directly in 1 cm pathlength, 4 ml fluorometric cuvettes by adding 150 μl of the 300 μM substrate solution (e.g substrate IA or IIA) 100 μl of the 1 mM NADH solution (prepared as in part 5 above) and 2.69 ml of assay buffer (0.1M phosphate, pH 7.6). […]
as §3
The rates of aldehyde reduction, determined as initial velocities (V) and expressed in units of nM/minute, were calculated according to: [formula] where the quantity in parentheses is the slope of the linear fluorescence increase calculated from the quantities Ft and FO, the fluorescence at time t and at the beginning of the reaction, respectively. […]

αγ1 ADH (Class I) = biological target: T3, αγ1 ADH (Class I) (Homo sapiens, UniProt P00326+P07327); assay: Kinetics of enzymatic reduction of methoxynaphthaldehydes by αγ1 ADH; type: biochemical; details: rate relative to ethanol oxidation at pH 10.0
T3 construct: gamma1 allele (ADH1C*1, Arg271 and Ile349 in mature count)

Class I ADH = assay: Kinetics of enzymatic reduction of methoxynaphthaldehydes by Class I ADH isozymes; type: biochemical, human; details: for kcat / Km: Table IV; for kcat: average for Class I isozymes except ββ forms; for Km: range over Class I isozymes
Method: as §6
(§7) All reaction mixtures (3 ml total volume) were prepared directly in 1 cm pathlength, 4 ml fluorometric cuvettes by adding 150 μl of the 300 μM substrate solution (e.g substrate IA or IIA) 100 μl of the 1 mM NADH solution (prepared as in part 5 above) and 2.69 ml of assay buffer (0.1M phosphate, pH 7.6). After thermal equilibration (25° C.) for 5 minutes, 60 μl of isozyme sample (either serum or purified ADH isozymes) was added to the cuvette.
(§8) The linear increase of fluorescence was then recorded for 1-10 minutes, until 0.03-1 μM of substrate was consumed. Larger substrate consumption was not found to be desirable (described in subpart (c) below). After this period the instrument sensitivity setting was reduced 10-30 fold, the signal compensated once again by zero suppression (see part 6 above), and 60 μl of 200-400 μM product (e.g., product IB or IIB) was added to provide an internal standard. The added product fluorescence intensity was then measured Fluorescence measurements were optimized for samples with low activity (<1 nM/minute). For samples with higher activity, repeat measurements were made with the serum volume reduced from 60 μl to 10 μl. Rates measured in the presence of the 0.2 mM ADH inhibitors. 4-MeP or 4-PeP, were made by adding 50 μl of 12 mM inhibitor to the cuvette prior to the assay buffer, and the reaction was carried out as above.
(§9) The rates of aldehyde reduction, determined as initial velocities (V) and expressed in units of nM/minute, were calculated according to: [formula] where the quantity in parentheses is the slope of the linear fluorescence increase calculated from the quantities Ft and FO, the fluorescence at time t and at the beginning of the reaction, respectively. Cst is the concentration of the product used as a standard added to the cuvette after the initial rate had been measured and Fst is the fluorescence intensity of the added product
as §5
The values for these constants were determined with purified Class II ADH or a mixture of purified Class I isozymes, under the fluorometric assay conditions described above in Example 1.

β1 γ2 ADH (Class I) = biological target: T4, β1 γ2 ADH (Class I) (Homo sapiens, UniProt P00325+P00326, I350V/R272Q); assay: Kinetics of enzymatic reduction of methoxynaphthaldehydes by β1γ2 ADH; type: biochemical; details: rate relative to ethanol oxidation at pH 10.0
T4 construct: beta1 (ADH1B*1) and gamma2 (ADH1C*2) alleles
Method: as §1, §2, §3, §4

γ1 γ1 ADH (Class I) = biological target: T5, γ1 γ1 ADH (Class I) (Homo sapiens, UniProt P00326); assay: Kinetics of enzymatic reduction of methoxynaphthaldehydes by γ1γ1 ADH; type: biochemical; details: rate relative to ethanol oxidation at pH 10.0
T5 construct: gamma1 allele (ADH1C*1, Arg271 and Ile349 in mature count)

β1 β1 ADH (Class I) [2] = assay: Kinetics of enzymatic reduction of methoxynaphthaldehydes by β1β1 ADH; type: biochemical, human; details: for Km / kcat: Table IV; for v/v (EtOH): rate relative to ethanol oxidation at pH 10.0
Method: as §1, §6, §7, §8, §9, §5

Class II (π) ADH = Class II (π) ADH (Homo sapiens, UniProt P08319); assay: Kinetics of enzymatic reduction of methoxynaphthaldehydes by Class II ADH; type: biochemical; details: for v/v (EtOH): rate relative to ethanol oxidation at pH 10.0
[3] = pH 7.0, 50 μM NADH, spectrophotometric

Chain of Class II (π) ADH (P08319 whole entry): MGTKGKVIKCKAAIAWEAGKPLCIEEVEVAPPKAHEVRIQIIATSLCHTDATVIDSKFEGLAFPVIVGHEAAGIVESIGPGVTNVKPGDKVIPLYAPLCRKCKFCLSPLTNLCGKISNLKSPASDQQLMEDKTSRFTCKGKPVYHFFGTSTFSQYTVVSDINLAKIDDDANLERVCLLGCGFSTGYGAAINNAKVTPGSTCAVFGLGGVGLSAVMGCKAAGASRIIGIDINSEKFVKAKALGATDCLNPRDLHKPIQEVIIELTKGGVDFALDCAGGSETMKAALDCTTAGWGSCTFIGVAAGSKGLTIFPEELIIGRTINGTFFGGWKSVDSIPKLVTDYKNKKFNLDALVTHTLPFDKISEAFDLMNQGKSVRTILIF
T5 sequence (P00326 2-375): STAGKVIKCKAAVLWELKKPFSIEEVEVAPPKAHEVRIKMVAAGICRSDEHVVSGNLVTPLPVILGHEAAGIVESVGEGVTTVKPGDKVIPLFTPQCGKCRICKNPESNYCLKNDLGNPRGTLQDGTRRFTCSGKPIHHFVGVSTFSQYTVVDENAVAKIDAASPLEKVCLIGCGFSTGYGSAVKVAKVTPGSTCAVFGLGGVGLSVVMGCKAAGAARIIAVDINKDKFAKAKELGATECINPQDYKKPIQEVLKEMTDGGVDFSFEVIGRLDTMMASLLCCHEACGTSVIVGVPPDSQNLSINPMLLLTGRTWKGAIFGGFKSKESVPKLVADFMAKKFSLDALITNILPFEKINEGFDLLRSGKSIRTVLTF
T1 sequence (P00325 whole entry): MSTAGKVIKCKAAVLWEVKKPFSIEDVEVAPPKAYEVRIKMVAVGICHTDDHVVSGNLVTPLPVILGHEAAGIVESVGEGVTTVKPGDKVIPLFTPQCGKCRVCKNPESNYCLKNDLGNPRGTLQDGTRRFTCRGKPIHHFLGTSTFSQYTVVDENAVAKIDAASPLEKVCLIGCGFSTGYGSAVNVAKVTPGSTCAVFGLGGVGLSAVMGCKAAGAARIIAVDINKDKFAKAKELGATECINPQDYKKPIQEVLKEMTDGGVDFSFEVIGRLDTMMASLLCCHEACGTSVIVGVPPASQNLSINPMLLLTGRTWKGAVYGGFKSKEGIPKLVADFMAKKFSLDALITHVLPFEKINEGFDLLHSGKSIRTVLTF
T1 sequence (P00326 whole entry): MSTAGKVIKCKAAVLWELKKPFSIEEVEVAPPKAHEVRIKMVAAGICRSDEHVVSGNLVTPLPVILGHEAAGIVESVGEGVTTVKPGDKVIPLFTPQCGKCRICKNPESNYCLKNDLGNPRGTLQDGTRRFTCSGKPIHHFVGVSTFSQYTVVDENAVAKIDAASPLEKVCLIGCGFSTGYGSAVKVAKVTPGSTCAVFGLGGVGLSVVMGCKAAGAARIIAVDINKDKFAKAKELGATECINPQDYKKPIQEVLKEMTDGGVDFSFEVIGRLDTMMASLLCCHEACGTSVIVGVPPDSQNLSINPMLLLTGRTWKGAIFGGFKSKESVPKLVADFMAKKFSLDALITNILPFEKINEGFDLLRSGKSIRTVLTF
T3 sequence (P07327 2-375): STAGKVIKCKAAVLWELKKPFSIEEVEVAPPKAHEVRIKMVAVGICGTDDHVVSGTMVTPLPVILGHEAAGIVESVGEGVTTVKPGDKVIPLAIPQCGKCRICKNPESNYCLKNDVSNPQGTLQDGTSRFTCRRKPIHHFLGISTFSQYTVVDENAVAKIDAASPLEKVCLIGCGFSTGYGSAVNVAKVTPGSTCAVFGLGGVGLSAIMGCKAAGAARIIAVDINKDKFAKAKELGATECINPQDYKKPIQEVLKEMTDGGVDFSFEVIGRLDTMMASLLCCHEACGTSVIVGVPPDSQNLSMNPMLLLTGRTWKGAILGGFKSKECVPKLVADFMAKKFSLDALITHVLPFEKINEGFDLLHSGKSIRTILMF
T3 sequence (P00326 2-375): as the sequence (P00326 2-375) above
T2 sequence (P07327 2-375): as the sequence (P07327 2-375) above
T2 sequence (P00325 2-375): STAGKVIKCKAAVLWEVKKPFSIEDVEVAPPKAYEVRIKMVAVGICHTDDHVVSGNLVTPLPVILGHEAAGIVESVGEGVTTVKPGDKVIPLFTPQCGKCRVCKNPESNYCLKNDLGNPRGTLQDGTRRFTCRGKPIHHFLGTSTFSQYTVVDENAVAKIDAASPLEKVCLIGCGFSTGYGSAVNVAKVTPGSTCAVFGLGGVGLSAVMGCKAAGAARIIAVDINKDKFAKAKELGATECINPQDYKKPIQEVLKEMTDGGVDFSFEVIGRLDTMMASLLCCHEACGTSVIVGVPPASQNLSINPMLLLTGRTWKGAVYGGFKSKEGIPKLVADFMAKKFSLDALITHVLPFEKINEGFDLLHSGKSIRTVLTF
T4 sequence (P00325 2-375, stated change not applied): as the sequence (P00325 2-375) above
T4 sequence (P00326 2-375 R272Q/I350V): as the sequence (P00326 2-375) above, with R271Q, I349V counted along it

Row | Km (β1 β1 ADH (Class I) [1]) | v/v (EtOH) (β1 γ1 ADH (Class I)) | v/v (EtOH) (αβ1 ADH (Class I)) | Km (Horse ADH) | Km of most, in particular γ-containing Class I isozymes (human ADH isozymes) | v/v (EtOH) (αγ1 ADH (Class I)) | Km (Class I ADH) | v/v (EtOH) (β1 γ2 ADH (Class I)) | v/v (EtOH) (γ1 γ1 ADH (Class I)) | Km (β1 β1 ADH (Class I) [2]) | kcat (Class II (π) ADH; [3]) | v/v (EtOH) (Class II (π) ADH) | Structure (SMILES) | kcat (β1 β1 ADH (Class I) [1]) | kcat (Horse ADH) | v/v (EtOH) (Horse ADH) | kcat (Class I ADH) | kcat (β1 β1 ADH (Class I) [2]) | v/v (EtOH) (β1 β1 ADH (Class I) [2]) | further results
1 | 4 µM | 0.93 | 1.59 | 33 µM | close to or below 1 | 2.71 | 0.6 to 8.5 µM | 3.4 | 1.54 | 4 µM | 0.833 s⁻¹ | 0.20 | COc1ccc(C=O)c2ccccc12 [IA, 4-methoxy-1-naphthaldehyde] | 0.033 s⁻¹ | 0.433 s⁻¹ | 0.04 | 5.83 s⁻¹ | 0.033 s⁻¹ | 0.08 | a: ratio of specific rates for Class I to Class II ADH with IA as substrate (Class I ADH; fluorometric assay conditions): 0.022; rate of reduction of IA versus IIA by Class I ββ isozymes (β1 β1 ADH (Class I) [2]; words): much faster
2 | 5.4 µM | 0.53 | 0.74 | 2.2 µM | close to or below 1 | 1.06 | 0.4 to 11.5 µM | 1.6 | 0.45 | 5.4 µM | 25 s⁻¹ | 8.0 | COc1ccc2cc(C=O)ccc2c1 [IIA, 6-methoxy-2-naphthaldehyde] | 1.28 s⁻¹ | 35.83 s⁻¹ | 2.5 | 1.83 s⁻¹ | 1.28 s⁻¹ | 4.85 | rate of reduction versus ethanol oxidation (Class I ADH; Class I isozymes, words): generally slower, but still comparable; d: ratio of specific rates for Class I ADH with IIA and IA as substrates (Class I ADH; average value): 0.27; ratio of specific rates for Class I to Class II ADH with IIA as substrate (Class I ADH; average value): 0.27; kcat for Class II relative to Class I isozymes (Class II (π) ADH): 10 fold; kcat (Class II (π) ADH; Class II): 25 s⁻¹; rate of reduction relative to ethanol oxidation (Class II (π) ADH; Class II ADH): at least 8 fold

Source: patent US5162203A, “Methods of measuring isozymes and isozyme classes of alcohol dehydrogenase” (President and Fellows of Harvard College, priority 1989, dated 1992)
